Source: patent US8772029B2, “Modulation of oocyte meiotic progression and oocyte activation” (Northwestern University, priority 2011, dated 2014)

Experiments:
[1] = system: MII eggs; experiment: Activation of in vivo ovulated MII eggs (SrCl2, TPEN, ZnPT pre-treatment)
Procedure: Ovulated MII eggs were collected as described above. Eggs were transferred to KSOM medium with or without 10 μM ZnPT (1:1000 dilution of a 10 mM stock in DMSO) for exactly 5 minutes. Eggs were then washed in KSOM and allowed to recover for 10-15 minutes prior to activation. For SrCl2 activation, eggs were transferred to drops of calcium-free KSOM containing 10 mM SrCl2 for 2 hours, followed by 4 additional hours of culture in calcium-containing KSOM without SrCl2. TPEN activation was performed as previously described (Kim et al., 2011); eggs were cultured for 6 hours in KSOM containing 10 μM TPEN. Unactivated controls were cultured in KSOM for the same 6 hour time period to assess levels of spontaneous parthenogenesis.
MII eggs were treated with the ionophore zinc pyrithione (ZnPT) for 5 minutes to increase intracellular zinc. Following a 10-15 minute recovery period, eggs were then treated with activating agents SrCl2 or TPEN.

[2] = system: oocytes; experiment: Spindle phenotype scoring after in vitro maturation (IVM) with TPEN, MI-MII transition; format: cell-based, mouse
Procedure: For IVM studies, immature female CD1 mice (17 to 21 day old) were injected with 5IU equine chorionic gonadotropin (eCG) (Calbiochem, La Jolla, CA) in 100 μL sterile phosphate-buffered saline (PBS), intraperitoneally. After 44 to 48 hours, mice were anesthetized using isoflurane and euthanized by cervical dislocation. Dissected ovaries were placed in Leibovitz L-15 medium containing 1% FBS (L-15/FBS) and 0.2mM 3-isobutyl-1-methylxanthine (IBMX), and large antral follicles were punctured using 28 gauge needles to release cumulus oocyte complexes (COCs). COCs were washed through several drops of culture medium consisting of Minimum Essential Medium (MEM)-alpha with GLUTAMAX supplemented with 10% FBS, 1.5IU/mL human chorionic gonadotropin (hCG), and 5ng/mL epidermal growth factor and placed in culture medium with or without 10 μM N,N,N′,N′-tetrakis(2-pyridylmethyl) ethylenediamine (TPEN). In some experiments Z-Leu-Leu-Leu-al (MG132) was added to culture medium at 20 μM. COCs were cultured in drops of pre-equilibrated medium covered with embryo quality mineral oil at 37° C. in 5% CO2 with a humid environment. Ovulated MII eggs were collected from 4 to 6 week old mice primed with 5IU PMSG followed 48 h later by 5IU hCG. Oviducts were dissected into L-15/FBS, and eggs were removed and treated with 0.03% (w/v) hyaluronidase to remove cumulus cells. Eggs were washed and cultured in potassium simplex optimized medium (KSOM) (Millipore, Billerica, MA) covered with embryo quality mineral oil at 37° C. in 5% CO2.
Oocytes were denuded of cumulus cells and fixed in a microtubule stabilizing buffer (Ibanez et al., 2005) containing 2% formaldehyde and 1% Triton X-100 for 30 min at 37° C. Oocytes were washed and blocked in PBS containing 0.1M glycine, 3mg/mL BSA, 0.01% Tween 20, and 0.01% sodium azide for at least 1 h and were stored in blocking solution at 4° C. for up to 2 weeks. Oocytes were incubated with anti-tubulin antibody (1:100) for 1 h at 37C. followed by three washes in blocking solution. They were then incubated for 1 h in AlexaFluor-488 conjugated anti-mouse secondary antibody (5μg/mL) and rhodamine-phalloidin (2U/mL), washed three additional times, and mounted in VECTASHIELD with DAPI. Microscopy was performed using a Leica SP5 inverted laser-scanning confocal microscope with a 63x oil immersion objective (Leica Microsystems, Heidelberg, Germany). Images were processed using LAS AF software (Leica Microsystems). […]
Oocytes treated with TPEN during the MI-MII transition fail to enter MII. Following IVM under the conditions listed in control (C) or TPEN-containing (T) medium, oocytes were stained and imaged, and their spindle phenotypes were scored.

[3] = COCs in control medium 7.5 h, then 10 μM TPEN 6.5 h, n=42
[4] = COCs in control medium 7.5 h, then 10 μM TPEN 6.5 h, n=42, listed as T

## c1ccc(CN(CCN(Cc2ccccn2)Cc2ccccn2)Cc2ccccn2)nc1 [TPEN, N,N,N′,N′-tetrakis(2-pyridylmethyl)ethylenediamine]
[1]; MII eggs, 10 μM ZnPT 5 minutes, then 10 μM TPEN 6 h
  egg activation by TPEN after ZnPT pre-treatment: caused activation
[1]; control MII eggs, by 6 hours post activation, 10 mM SrCl2 2 h or 10 μM TPEN 6 h
  egg activation (second polar body and PN or PN-like structures): activated normally
[2]; [3]
  TPEN-like (telophase-I arrest-like) spindle phenotype: 31%
  normal MII spindle: failed to form MII spindles and none
  other (>2 chr. masses) spindle phenotype: 19%
  partial TPEN-like (chromatin mass) spindle phenotype: 54%
[2]; [4]
  TPEN-like (telophase-I arrest-like) spindle phenotype: 31%
  normal MII spindle: 0%
  partial TPEN-like (chromatin mass) spindle phenotype: 54%
[2]; TPEN 14 h IVM, n=34
  TPEN-like (telophase-I arrest-like) spindle phenotype: 91%
  normal MII spindle: 0%
  other (>2 chr. masses) spindle phenotype: 6%
  partial TPEN-like (chromatin mass) spindle phenotype: 3%
